The numbers were not newly measured in US20020127223A1, “Method for reducing side effects of a drug” (priority 1984, published 2002), which cites them from elsewhere.

The conditions of this data set: administered 3 hours following methotrexate.

Take `Nc1nc(=O)c2c([nH]1)NCC(CNc1ccc(C(=O)N[C@@H](CCC(=O)O)C(=O)O)cc1)N2C=O` (mixture of isomers) [folinic acid]: the “Attenuation of the toxic effects of methotrexate” value was “attenuate the toxic effects of methotrexate”.
